# US11168073B2, “3,3-difluoroallylamines or salts thereof and pharmaceutical compositions comprising the same” (YUHAN CORPORATION, priority 2018, dated 2021)
# Where a name gives a salt, the structure may show the parent alone.
# How the values were obtained:
# Assay type in all cases: biochemical
# [1] = target: T1, recombinant human MAO-B (monoamine oxidase-B) (Homo sapiens, UniProt P27338); experiment: Activity evaluation on recombinant human MAO-B (Amplex Red/HRP-coupled assay, 1 mM benzylamine substrate); conditions: 1 mM benzylamine substrate, read-out: Inhibitory Activity (IC50, nM) MAO-B
# T1 construct: purchased Sigma-Aldrich
# T1 sequence (P27338 1-520): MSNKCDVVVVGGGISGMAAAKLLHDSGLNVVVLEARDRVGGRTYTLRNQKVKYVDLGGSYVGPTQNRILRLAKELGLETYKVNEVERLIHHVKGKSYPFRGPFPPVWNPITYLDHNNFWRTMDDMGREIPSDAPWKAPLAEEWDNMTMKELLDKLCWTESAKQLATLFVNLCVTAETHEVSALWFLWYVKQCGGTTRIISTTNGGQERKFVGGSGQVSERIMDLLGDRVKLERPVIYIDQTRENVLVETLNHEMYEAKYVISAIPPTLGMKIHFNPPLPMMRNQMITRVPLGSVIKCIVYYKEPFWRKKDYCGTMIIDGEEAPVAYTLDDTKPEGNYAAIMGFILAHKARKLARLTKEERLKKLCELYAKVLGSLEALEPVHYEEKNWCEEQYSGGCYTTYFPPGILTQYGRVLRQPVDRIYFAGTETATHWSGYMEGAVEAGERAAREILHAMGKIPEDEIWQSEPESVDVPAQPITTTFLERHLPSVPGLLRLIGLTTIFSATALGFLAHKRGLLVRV
# Outline: (§1)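 Enzyme was preincubated with compounds (8-point 1:3 series, final DMSO <1%) 30 min at 37 °C in 50 mM sodium phosphate pH 7.4, then given 200 uM Amplex Red and 1 U/mL HRP with substrate. H2O2-derived resorufin fluorescence (ex 544/em 590 nm) was followed over 1–2 h; IC50 came from 4-parameter logistic fits of signal-rate inhibition versus DMSO control.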
# [2] = target: T2, recombinant human MAO-A (monoamine oxidase-A) (Homo sapiens, UniProt P21397); experiment: Activity evaluation on recombinant human MAO-A (Amplex Red/HRP-coupled assay, 0.5 mM tyramine substrate); conditions: 0.5 mM tyramine substrate, read-out: Inhibitory Activity (IC50, nM) MAO-A
# T2 construct: purchased Sigma-Aldrich
# T2 sequence (P21397 1-527): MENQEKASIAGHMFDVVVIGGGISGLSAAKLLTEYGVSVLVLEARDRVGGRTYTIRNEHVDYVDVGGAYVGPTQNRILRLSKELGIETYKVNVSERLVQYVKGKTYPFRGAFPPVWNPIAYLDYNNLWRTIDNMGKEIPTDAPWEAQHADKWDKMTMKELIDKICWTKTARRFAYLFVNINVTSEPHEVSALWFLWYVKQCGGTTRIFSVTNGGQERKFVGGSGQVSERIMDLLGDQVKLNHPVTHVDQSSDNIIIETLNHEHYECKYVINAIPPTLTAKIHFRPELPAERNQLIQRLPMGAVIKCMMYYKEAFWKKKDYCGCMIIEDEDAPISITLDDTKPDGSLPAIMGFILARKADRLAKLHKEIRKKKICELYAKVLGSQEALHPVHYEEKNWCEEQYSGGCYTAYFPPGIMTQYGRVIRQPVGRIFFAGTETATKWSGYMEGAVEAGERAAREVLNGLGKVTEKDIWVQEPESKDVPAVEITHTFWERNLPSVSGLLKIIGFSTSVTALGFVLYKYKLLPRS
# Outline: as §1
# [3] = target: T3, recombinant human VAP-1 (Homo sapiens, UniProt Q16853); experiment: Activity evaluation on recombinant human VAP-1 (Amplex Red/HRP-coupled hydrogen peroxide assay, benzylamine substrate); conditions: recombinant human VAP-1, benzylamine substrate; read-out: Inhibitory Activity (IC50, nM) human VAP-1
# T3 construct: purchased R&D systems
# T3 sequence (Q16853 1-763): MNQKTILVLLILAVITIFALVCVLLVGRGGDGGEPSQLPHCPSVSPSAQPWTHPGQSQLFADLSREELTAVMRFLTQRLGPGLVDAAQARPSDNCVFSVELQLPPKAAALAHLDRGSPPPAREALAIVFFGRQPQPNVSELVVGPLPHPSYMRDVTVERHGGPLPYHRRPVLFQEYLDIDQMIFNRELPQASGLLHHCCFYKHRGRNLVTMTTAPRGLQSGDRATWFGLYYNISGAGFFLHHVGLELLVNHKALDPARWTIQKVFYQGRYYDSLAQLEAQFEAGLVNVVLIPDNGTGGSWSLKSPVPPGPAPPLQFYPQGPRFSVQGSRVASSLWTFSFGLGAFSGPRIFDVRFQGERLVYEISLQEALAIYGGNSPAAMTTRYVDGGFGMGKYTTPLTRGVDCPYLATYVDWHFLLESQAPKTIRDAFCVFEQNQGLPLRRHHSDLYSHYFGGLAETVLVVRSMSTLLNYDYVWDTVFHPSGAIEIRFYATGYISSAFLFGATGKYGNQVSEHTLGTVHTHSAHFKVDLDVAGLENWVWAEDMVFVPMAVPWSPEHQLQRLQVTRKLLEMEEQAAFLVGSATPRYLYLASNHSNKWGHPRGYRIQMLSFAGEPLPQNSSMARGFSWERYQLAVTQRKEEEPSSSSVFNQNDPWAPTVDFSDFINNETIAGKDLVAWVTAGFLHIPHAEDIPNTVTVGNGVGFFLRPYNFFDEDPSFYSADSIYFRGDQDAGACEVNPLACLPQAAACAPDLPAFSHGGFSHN
# Outline: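 Recombinant human VAP-1 in 50 mM sodium phosphate pH 7.4 preincubated 30 min at 37 °C with compound (8-point 1:3 series, <1% DMSO), then 1 mM benzylamine, 200 uM Amplex Red, 1 U/mL HRP added. H2O2-derived resorufin fluorescence (ex 544/em 590) followed 1–2 h; IC50 from four-parameter fit of rate inhibition.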
# [4] = target: T4, recombinant human DAO (diamine oxidase) (Homo sapiens, UniProt P19801); experiment: Activity evaluation on recombinant human DAO (Amplex Red/HRP-coupled assay, 1 mM putrescine substrate); conditions: 1 mM putrescine substrate, read-out: Inhibitory Activity (IC50, nM) DAO
# T4 construct: purchased R&D systems
# T4 sequence (P19801 20-751): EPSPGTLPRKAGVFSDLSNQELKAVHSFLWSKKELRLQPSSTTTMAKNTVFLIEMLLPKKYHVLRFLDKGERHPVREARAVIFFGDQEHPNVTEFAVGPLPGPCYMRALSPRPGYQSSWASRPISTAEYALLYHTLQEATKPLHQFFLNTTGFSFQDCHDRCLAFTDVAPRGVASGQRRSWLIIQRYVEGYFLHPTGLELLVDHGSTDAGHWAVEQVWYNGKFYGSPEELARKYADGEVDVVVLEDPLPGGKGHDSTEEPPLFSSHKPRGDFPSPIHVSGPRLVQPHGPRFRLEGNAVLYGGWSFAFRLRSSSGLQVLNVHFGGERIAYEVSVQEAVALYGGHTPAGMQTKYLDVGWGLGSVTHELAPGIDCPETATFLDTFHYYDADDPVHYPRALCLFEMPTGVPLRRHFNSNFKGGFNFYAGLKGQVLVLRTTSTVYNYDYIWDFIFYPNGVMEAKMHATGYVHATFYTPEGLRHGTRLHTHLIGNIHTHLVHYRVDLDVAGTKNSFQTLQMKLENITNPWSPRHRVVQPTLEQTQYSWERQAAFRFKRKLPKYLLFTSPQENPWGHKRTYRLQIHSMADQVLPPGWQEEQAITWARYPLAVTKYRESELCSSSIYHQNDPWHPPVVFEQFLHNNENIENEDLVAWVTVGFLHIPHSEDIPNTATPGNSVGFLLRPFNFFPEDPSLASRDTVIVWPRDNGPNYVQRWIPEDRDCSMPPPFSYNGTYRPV
# Outline: as §1
Compound,IC50 [1] [nM],IC50 [2] [nM],IC50 [3] [nM],IC50 [4] [nM]
"NCC(Cn1ncn(Cc2ccc(-c3cccc(-c4nc[nH]n4)c3)s2)c1=O)=C(F)F [Example 185, 2-[2-(aminomethyl)-3,3-difluoro-allyl]-4-[[5-[3-(1H-1,2,4-triazol-3-yl)phenyl]-2-thienyl]methyl]-1,2,4-triazol-3-one Trifluoroacetate]",28000,> 100000,1.3,> 100000
"CN1Cc2cc(-c3csc(Cn4cnn(CC(CN)=C(F)F)c4=O)c3)ccc2NC1=O [Example 186, 6-[5-[[1-[2-(aminomethyl)-3,3-difluoro-allyl]-5-oxo-1,2,4-triazol-4-yl]methyl]-3-thienyl]-3-methyl-1,4-dihydroquinazolin-2-one Trifluoroacetate]",> 100000,> 100000,0.5,25000
"Cn1cc(-c2csc(Cn3cnn(CC(CN)=C(F)F)c3=O)c2)ccc1=O [Example 190, 5-[5-[[1-[2-(aminomethyl)-3,3-difluoro-allyl]-5-oxo-1,2,4-triazol-4-yl]methyl]-3-thienyl]-1-methyl-pyridin-2-one Trifluoroacetate]",> 100000,> 100000,1.4,63000
"CCn1cc(-c2csc(Cn3cnn(CC(CN)=C(F)F)c3=O)c2)ccc1=O [Example 193, 5-[5-[[1-[2-(aminomethyl)-3,3-difluoro-allyl]-5-oxo-1,2,4-triazol-4-yl]methyl]-3-thienyl]-1-ethyl-pyridin-2-one Trifluoroacetate]",> 100000,> 100000,1.3,8700
"NCC(Cn1ncn(Cc2cc(-c3cnn(C(F)F)c3)cs2)c1=O)=C(F)F [Example 194, 2-[2-(aminomethyl)-3,3-difluoro-allyl]-4-[[4-[1-(difluoromethyl)pyrazol-4-yl]-2-thienyl]methyl]-1,2,4-triazol-3-one Trifluoroacetate]",9200,> 100000,2.9,64000

# Further lines, results first:
IC50 [1] [nM],IC50 [2] [nM],IC50 [3] [nM],IC50 [4] [nM],Compound
> 100000,> 100000,1.1,8900,"CC(C)n1cc(-c2csc(Cn3cnn(CC(CN)=C(F)F)c3=O)c2)ccc1=O [Example 187, 5-[5-[[1-[2-(aminomethyl)-3,3-difluoro-allyl]-5-oxo-1,2,4-triazol-4-yl]methyl]-3-thienyl]-1-isopropyl-pyridin-2-one Trifluoroacetate]"
> 100000,> 100000,3.4,7400,"CC(=O)N1CCN(c2ccc(-c3csc(Cn4cnn(CC(CN)=C(F)F)c4=O)c3)cc2)CC1 [Example 188, 4-[[4-[4-(4-acetylpiperazin-1-yl)phenyl]-2-thienyl]methyl]-2-[2-(aminomethyl)-3,3-difluoro-allyl]-1,2,4-triazol-3-one Trifluoroacetate]"
> 100000,> 100000,0.5,23000,"NCC(Cn1ncn(Cc2cc(-c3cc(F)c4[nH]c(=O)ccc4c3)cs2)c1=O)=C(F)F [Example 189, 6-[5-[[1-[2-(aminomethyl)-3,3-difluoro-allyl]-5-oxo-1,2,4-triazol-4-yl]methyl]-3-thienyl]-8-fluoro-1H-quinolin-2-one Trifluoroacetate]"
44000,> 100000,0.3,4200,"NCC(Cn1ncn(Cc2cc(-c3ccc4c(c3)COC(=O)N4)cs2)c1=O)=C(F)F [Example 191, 6-[5-[[1-[2-(aminomethyl)-3,3-difluoro-allyl]-5-oxo-1,2,4-triazol-4-yl]methyl]-3-thienyl]-1,4-dihydro-3,1-benzoxazin-2-one Trifluoroacetate]"
56000,> 100000,0.4,22000,"NCC(Cn1ncn(Cc2cc(-c3ccc4c(c3)CCC(=O)N4)cs2)c1=O)=C(F)F [Example 192, 6-[5-[[1-[2-(aminomethyl)-3,3-difluoro-allyl]-5-oxo-1,2,4-triazol-4-yl]methyl]-3-thienyl]-3,4-dihydro-1H-quinolin-2-one Trifluoroacetate]"
38000,> 100000,2,31000,"CC(C)n1cc(-c2csc(Cn3cnn(CC(CN)=C(F)F)c3=O)c2)cn1 [Example 195, 2-[2-(aminomethyl)-3,3-difluoro-allyl]-4-[[4-(1-isopropylpyrazol-4-yl)-2-thienyl]methyl]-1,2,4-triazol-3-one Trifluoroacetate]"
2900,> 100000,1.4,1900,"NCC(Cn1ncn(Cc2cc(-c3cccc(-c4nc[nH]n4)c3)cs2)c1=O)=C(F)F [Example 196, 2-[2-(aminomethyl)-3,3-difluoro-allyl]-4-[[4-[3-(1H-1,2,4-triazol-3-yl)phenyl]-2-thienyl]methyl]-1,2,4-triazol-3-one Trifluoroacetate]"
18000,> 100000,0.8,2400,"CS(=O)(=O)c1ccc(-c2ccc3cc(Cn4cnn(CC(CN)=C(F)F)c4=O)sc3c2)cc1 [Example 197, 2-[2-(aminomethyl)-3,3-difluoro-allyl]-4-[[6-(4-methylsulfonylphenyl)benzothiophen-2-yl]methyl]-1,2,4-triazol-3-one trifluoroacetate]"
